Here are results for seven compounds from patent publication US9562044B2, “2-acylaminothiazole derivative or salt thereof” (ASTELLAS PHARMA INC., priority 2013, dated 2017).

Counter-ions that a name gives are not always drawn.

Data set [1] addresses T1, human c-Mpl receptor (Homo sapiens, UniProt P40238).
T1 construct: expressed in transfected cells
T1 sequence (P40238 26-635): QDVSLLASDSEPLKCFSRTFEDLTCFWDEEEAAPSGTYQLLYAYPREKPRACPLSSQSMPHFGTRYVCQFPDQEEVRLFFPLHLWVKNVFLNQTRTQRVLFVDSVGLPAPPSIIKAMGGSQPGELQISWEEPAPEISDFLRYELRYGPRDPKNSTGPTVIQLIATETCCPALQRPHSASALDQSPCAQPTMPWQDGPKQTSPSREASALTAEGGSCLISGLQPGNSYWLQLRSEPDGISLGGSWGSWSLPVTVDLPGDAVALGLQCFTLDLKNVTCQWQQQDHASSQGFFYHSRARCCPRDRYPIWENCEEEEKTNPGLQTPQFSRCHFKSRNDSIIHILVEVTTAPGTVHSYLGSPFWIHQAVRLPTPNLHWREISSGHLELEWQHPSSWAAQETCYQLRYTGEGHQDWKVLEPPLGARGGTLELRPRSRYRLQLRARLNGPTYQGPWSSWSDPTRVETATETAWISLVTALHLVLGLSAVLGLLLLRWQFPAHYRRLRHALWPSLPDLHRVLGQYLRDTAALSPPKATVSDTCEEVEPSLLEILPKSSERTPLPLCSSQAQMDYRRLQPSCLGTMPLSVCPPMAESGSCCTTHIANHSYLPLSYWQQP
The following applies: positive control; as disclosed in Patent Document 1; cited from earlier work.

The target of data set [2] is T1, human c-Mpl receptor. Nature of the data set: Human c-Mpl-introduced Ba/F3 cell proliferative activity. It is filed as cell-based. The conditions noted are these: concentration showing 30% proliferation; 100% = positive control at 1 μM. How it is done: Evaluation of Human c-Mpl-Introduced Ba/F3 Cell Proliferative Activity
The human c-Mpl-introduced Ba/F3 cell proliferative activity was measured by the following method.
As a positive control, 1-(5-{[4-(4-chloro-2-thienyl)-5-{[(2R)-2-methylpyrrolidin-1-yl]methyl}-1,3-thiazol-2-yl]carbamoyl}-3-fluoropyridin-2-yl)piperidine-4-carboxylic acid hydrochloride, which is disclosed as Example 315 in Patent Document 1 and represented by the formula A1, was used. It is known that the compound has a good human c-Mpl-introduced Ba/F3 cell proliferative activity as disclosed in Table 1 of Patent Document 1.
a) Construction of Human c-Mpl Receptor Expression Vector
A human c-mpl receptor gene (GenBank Accession No. M90102.1) was introduced into an expression vector pEF-BOS (Nucleic Acids Res. 18, 5322, 1990).
b) Construction of Cell Stably Expressing Human c-Mpl Receptor
A human c-Mpl receptor expression vector was introduced into a Ba/F3 cell (RIKEN BRC: RCB0805). For the introduction, an electroporation method was used. pEF-BOS-c-mpl (10 μg), pSV2bsr (1 μg, Kaken Pharmaceutical Co., Ltd.) and 1×10^7 Ba/F3 cells were put into a cuvette having a gap width of 0.4 cm, and electroporated under the conditions of 1.5 kV (25 μF) by a Gene Pulser (registered trademark) (BioRad). The cells were cultured in an RPMI-1640 culture medium containing 0.5% WEHI conditioned media (BD Biosciences) and 10% fetal bovine serum for 3 days, and then cultured in an RPMI-1640 culture medium, to which 10 μg/mL blasticidin had been further added, for 30 days to acquire a drug-resistant clone.
c) Measurement of Cell Proliferative Activity
The cells obtained in b) above was cultured in an RPMI-1640 culture medium containing 0.5% WEHI conditioned media, 10% fetal bovine serum, and used. On the day before the experiment, test substances (final concentration of 100 nM to 10 μM) which had been dissolved in a culture medium for assay (RPMI-1640 culture medium containing 10% fetal bovine serum) were added to a 384-well plate (Lot No. 781185, Greiner Bio-One). The cells in the culture medium that had been replaced with a culture medium for assay were dispensed into a 384-well plate, to which the test substances had been added in advance, to 1×10^4 cells/well, and cultured at 37° C. and 5% CO2 overnight. On the experiment day, a solution of a Cell Counting Kit (Dojindo Laboratories) was added to each well of the 384-well plate and cultured at 37° C. and 5% CO2 for about 5 hours. Thereafter, the absorbance (absorption wavelength of 450 nm) of each well was measured using Safire^2™ (TECAN) and used as the index of the number of cells. Further, as a negative control, a well in which the test substance had been not added was prepared.
The absorbance of the well without the test substance was set to 0%, and the absorbance in the case where the positive control was added at a final concentration of 1 μM was set to 100%. From the absorbance in the case where the test substance had been added, a cell proliferation rate (%) was calculated. From the obtained results, the test substance concentration showing 30% proliferation was calculated as an EC30 value by a logistic regression method.

A further data set has as its system isolated rat bladder. Put plainly: Transmural electrical field stimulation-induced contraction of isolated rat bladder. The conditions noted are these: AUC of contractile response, value before treatment = 100%, SD female rat bladder strip, read-out: Enhancement rate of isolated bladder contraction (% of pre). On the procedure:
Effects on Transmural Electrical Field Stimulation-Induced Contraction of Isolated Rat Bladder
As an effect on the nerve stimulation-dependent bladder contraction in vitro, the effect of the Example compound of the present invention in the transmural electrical field stimulation-induced contraction of isolated rat bladder was measured by the following method. That is, from the bladder isolated from a Spraque-Dawley (SD) female rat (Japan SLC, Inc.), a longitudinal bladder strip having a width of about 2 mm and a length of about 10 mm was prepared. The prepared bladder strip was suspended in an organ bath filled with 10 mL of a Krebs-Henseleit solution. The Krebs-Henseleit solution was bubbled with 95% O2 and 5% CO2, and kept at 37° C. After stabilization at an initial tension of 1 g, contraction was induced twice with 60 mM KCl. The strip was washed with the Krebs-Henseleit solution and stabilized, and then contraction was induced with transmural electrical field stimulation at 20 V (stimulation frequency of 8 Hz, pulse width of 0.3 msec, and stimulation time of 10 seconds) by an electrical stimulation device (Nihon Kohden Corporation). At an interval of 2 minutes, transmural electrical field stimulation was repeated and the voltage was adjusted to make the contractile amplitude about 50% of the contractile response by 20 V. After stabilization of the contraction by the transmural electrical field stimulation, 10 μL of the test substance (final concentrations of 3 μM, 10 μM, and 30 μM), which had been dissolved in 100% dimethylsulfoxide in advance was added. The test substance was cumulatively administered at the next concentration after the contractile response at a lower concentration had been stabilized. The responses were put into a personal computer through PowerLab (registered trademark) (AD Instruments), and analyzed with LabChart (registered trademark) (AD Instruments). The area under the response of each contractile response (area under curve, AUC) was calculated and the value before the treatment with the test substance was set to 100%. Based on this, the enhancement rate of the isolated bladder contraction (% of pre) after the treatment with the test substance was calculated.
The enhancement rates of the isolated bladder contraction due to several 10 μM Example compounds which are the compounds of the formula (I) are shown in Table 2.

For `C[C@@H]1CCCN1Cc1sc(NC(=O)c2cnc(N3CCC(C(=O)O)CC3)cn2)nc1-c1cc(Cl)cs1` [Example 206, 1-(5-{[4-(4-chloro-2-thienyl)-5-{[(2R)-2-methylpyrrolidin-1-yl]methyl}-1,3-thiazol-2-yl]carbamoyl}pyrazin-2-yl)piperidine-4-carboxylic acid], the melting point worked out at 201 °C.
`CC[C@@H]1CCCN1Cc1sc(NC(=O)c2cnc(N3CCC(C(=O)O)CC3)cn2)nc1-c1ccc(OC)c(C(F)(F)F)c1` [Example 8, 1-{5-[(5-{[(2R)-2-ethylpyrrolidin-1-yl]methyl}-4-[4-methoxy-3-(trifluoromethyl)phenyl]-1,3-thiazol-2-yl)carbamoyl]pyrazin-2-yl}piperidine-4-carboxylic acid]: the melting point was determined as 194 °C.
As to `C[C@@H]1CCCN1Cc1sc(NC(=O)c2cnc(N3CCC(C(=O)O)CC3)c(F)c2)nc1-c1cc(Cl)cs1.Cl` [Example A1, 1-(5-{[4-(4-chloro-2-thienyl)-5-{[(2R)-2-methylpyrrolidin-1-yl]methyl}-1,3-thiazol-2-yl]carbamoyl}-3-fluoropyridin-2-yl)piperidine-4-carboxylic acid hydrochloride], the “Human c-Mpl-introduced Ba/F3 cell proliferative activity (Table 1 of Patent Document 1)” value on human c-Mpl receptor [1] is “good”.
For `CCCOc1ccc(-c2nc(NC(=O)c3cnc(N4CCC(C(=O)O)CC4)cn3)sc2CN2CCC[C@H]2CC)cc1C(F)(F)F` [Example 1, 1-{5-[(5-{[(2R)-2-ethylpyrrolidin-1-yl]methyl}-4-[4-propoxy-3-(trifluoromethyl)phenyl]-1,3-thiazol-2-yl)carbamoyl]pyrazin-2-yl}piperidine-4-carboxylic acid dihydrochloride], the “Test Example 2 EC30” value on human c-Mpl receptor [2] is greater than 10 µM. Also, in the data set on isolated rat bladder, the activity at 10 µM was found to be 132%.
In the same order, the values of `CCCC1CCCN1Cc1sc(NC(=O)c2cnc(N3CCC(C(=O)O)CC3)cn2)nc1-c1ccc(OC(C)C)c(C(F)(F)F)c1` (stereo not shown) [Example 19] are greater than 10 µM and 124%.
With `COc1ccc(-c2nc(NC(=O)c3cnc(N4CCC(C(=O)O)CC4)cn3)sc2CN2CCC[C@H]2C(F)(F)F)cc1C(F)(F)F` [Example 179], the “Test Example 2 EC30” value at human c-Mpl receptor [2] is greater than 10 µM. Moreover, the activity at 10 µM with isolated rat bladder was found to be 120%.
Regarding `COc1cc(-c2nc(NC(=O)c3cnc(N4CCC(C(=O)O)CC4)cn3)sc2CN2CCCC[C@H]2C)cc(C(F)(F)F)c1` [Example 207, 1-{5-[(4-[3-methoxy-5-(trifluoromethyl)phenyl]-5-{[(2R)-2-methylpiperidin-1-yl]methyl}-1,3-thiazol-2-yl)carbamoyl]pyrazin-2-yl}piperidine-4-carboxylic acid], the melting point was found to be 136 °C.

The melting point is the temperature of the solid-liquid transition.
